Data from patent publication US4656178A (priority 1985, dated 1987).
Where a name gives a salt, the structure may show the parent alone.

Legend:
[1] = test system: arrhythmia caused by electrical irritation; assay: arrhythmia caused by electrical irritation of the right auricle and apex of the left ventricle; assay type: in vivo, dogs and cats
[2] = sugar, protein and enzymes in rats' blood; assay type: in vivo; conditions: 1 mg/kg, single and lasting administration
[3] = test system: calcium channels of the membrane of neurons; assay: ion currents through the somatic membrane of mollusc neurons: calcium channels; assay type: cell-based, mollusca
Description: The study of the effect produced by the preparation of the present invention on ion currents through the somatic membrane of neurons has shown that it selectively interacts with calcium and potassium channels of the membrane of neurons of mollusca, whereby the currents along these channels are suppressed.

[4] = test system: cardiac arrhythmia induced by barium chloride; assay: cardiac arrhythmia induced by barium chloride; assay type: in vivo, narcotized rats and intact rabbits; conditions: 0.1 mg/kg, injected 10 minutes prior to barium
Procedure: The study of the antiarrhythmic activity of the preparation according to the present invention on a model of cardiac arrhythmia induced by barium chloride was carried out on 56 narcotized rats and 16 intact rabbits. The preparation of the present invention in the dose of 0.1 mg/kg injected 10 minutes prior to administration of barium prevented the development of arrhythmia in 86.6% of the animals.

[5] = test system: aconitine arrhythmia; assay type: in vivo, rats
Procedure: The atrioventricular arrhythmia caused by aconitine is one of the most reliable models for forecasting the efficiency of the antiarrhythmic action of the novel preparation in clinics. The experiments were conducted on both narcotized and non-narcotized animals. The preparation was administered per os, intramuscularly, intraperitoneally and intravenously 5 to 15 minutes prior to or 3-5 minutes after the administration of aconitine.
The antiarrhythmic activity of the pharmaceutical composition according to the present invention upon administration thereof against the background of a developing aconitine arrhythmia (therapeutic effect) was studied on 110 narcotized rats. The preparation was intravenously administered at intervals of 3-6 minutes against the background of the originated arrhythmia.

[6] = 6-month histological toxicity, dogs; assay type: in vivo; conditions: per os, 1 and 5 mg/kg, 6 months
[7] = test system: frog's heart; assay: amplitude of cardiac contractions of isolated frog's heart (Schtraube); conditions: concentration of 10^-6 -5.10^-5 g/ml
Description: To find out a negative inotropic effect on the heart tissue, two series of experiments have been carried out:
(1) the study of the effect of the preparation of this invention on the amplitude of the cardiac contractions of a frog's heart isolated according to Schtraube;

[8] = 6-month histological toxicity, rats; assay type: in vivo; conditions: per os, 1 mg/kg, 6 months
[9] = solubility; assay type: physicochemical
Procedure: The aerial portion and roots (tubers) of the plant Acontium leucostomum are disintegrated. The disintegrated air-dry raw material is wetted with a 3% solution of sodium carbonate and 1 hour thereafter is poured with chloroform. 12 hours afterwards the chloroform is drained and the plant is treated with a fresh portion of chloroform. There are thus obtained 8 extracts which are combined and evaporated under vacuum to a small volume. From the concentrated chloroform extract the alkaloids are recovered by means of a 2% sulphuric acid. The combined acid extracts are washed with chloroform, alkalinized by soda and extracted with chloroform. The chloroform extract is evaporated and the residue is treated with acetone to give a commercial product--lappaconitine which is recrystallized from methanol. Methanolic solution of lappaconitine and hydrobromic acid are mixed. […] M.p. is 216°-220° C., [α]D^24 =+27 (alcohol); C32 H44 O8 N2.HBr, molecular weight= 664.9.

[10] = diuresis and urine of rats; assay type: in vivo; conditions: 0.5-1 mg/kg
[11] = test system: central adreno- and cholinergic processes; assay: central effects (sedative, adreno-, cholinergic, serotonin); conditions: in vivo
[12] = effect on arterial pressure and breathing in narcotized cats and dogs; assay type: in vivo; conditions: intravenous, 0.05, 0.1, 0.5, 1 mg/kg
Description: With the view to evaluate the effect of the preparation according to the present invention on arterial pressure and breathing, experiments have been carried out on narcotized cats and dogs.

[13] = antiinflammatory effect; assay type: in vivo; conditions: doses of 1-5 mg/kg
[14] = test system: cardiac arrhythmia caused by ligation of the descending branch of the left coronary artery; assay: cardiac arrhythmia caused by ligation of the descending branch of the left coronary artery (Harris method) in dogs; assay type: in vivo
Procedure: The effect of the preparation according to the present invention on the cardiac arrhythmia caused by ligation of the descending branch of the left coronary artery by the Harris method was studied in experiments on dogs. The preparation according to the present invention was intravenously administered on the first and second post-operative days. Preliminarily, prior to every experiment 30 to 45 minutes before the administration of the preparation the background changes of the dogs' electrocardiogram (ECG) were recorded. […] In 40% thereof a full suppression of ectopic contractions was noticed for 3-3.5 hours, whereafter arrhythmia appeared with the intensity thereof not reaching the initial background during 7 hours.

[15] = 6-month histological toxicity, rabbits; assay type: in vivo; conditions: intravenous, 0.1 and 0.5 mg/kg, 6 months
[16] = lethal dose in dogs; assay type: in vivo; conditions: intravenous
Procedure: (§1) The resorptive effect and toxicity of the preparation according to the present invention were studied on mice, rats, rabbits and dogs.
In doses of 5-6 mg/kg intravenously the preparation according to the present invention causes death of dogs and in doses of 3-4 mg/kg it is lethal for rabbits.

[17] = resorptive effect and toxicity (general state); assay type: in vivo, mice, rats, rabbits and dogs
Description: as §1

CCN1CC2(OC(=O)c3ccccc3NC(C)=O)CCC(OC)C34C1C(CC23)C1(O)CC(OC)C2CC4C1(O)C2OC (centres unmarked) [lappaconitine hydrobromide]
arterial pressure and amplitude of the heart beat ([1]; 0.25 and 0.5 mg/kg): not changed | duration of antiarrhythmic effect ([1]; 0.25 and 0.5 mg/kg): 2 to 3 h | arrest of arrhythmia caused by electrical irritation ([1]; 0.25 and 0.5 mg/kg intravenously, 7 dogs and 10 cats): fully stops the origination of arrhythmia | onset of antiarrhythmic effect ([1]; after administration, 0.25 and 0.5 mg/kg): 3 to 7 min | activity relative to quinidine and novocainamide (times superior) ([1]; dog, in vivo): 40 times | content of sugar, protein and enzymes in blood [2]: does not result in substantial changes | effect on currents along calcium channels [3]: suppressed | animals in which development of arrhythmia is prevented [4]: 86.6% | animals with complete restoration of normal sinus rhythm ([5]; 0.1 mg/kg intravenously): 50% | time to restoration of normal sinus rhythm ([5]; 0.1 mg/kg, control arrhythmia lasts 120 minutes): 30 to 35 min | complete elimination of arrhythmia and restoration of correct sinus rhythm ([5]; 0.3 to 0.5 mg/kg): complete elimination of arrhythmia and restoration of the correct sinus rhythm in all the animals | time to complete elimination of arrhythmia ([5]; 0.3 to 0.5 mg/kg): 1 to 2 min | antiarrhythmic index (LD50/ED50) ([5]; against background of developing aconitine arrhythmia): 59 | destructive changes of inner organs and tissues [6]: no destructive changes on the part of inner organs and tissues | negative inotropic effect, isolated heart [7]: does not provide a negative inotropic effect | destructive changes of inner organs and tissues [8]: no destructive changes on the part of inner organs and tissues | solubility [9]: soluble in water, alcohol, better in methanol | effect on diuresis [10]: no effect on diuresis of rats | protein and blood in urine ([10]; sulphanylic acid test and benzidine test): not detected | central sedative effect [11]: weak central sedative effect | effect on central adreno- and cholinergic processes [11]: does not provide any substantial effect on central adreno- and cholinergic processes | serotonin-negative effect [11]: weak | influence on arterial pressure and breathing [12]: did not exert any influence on the arterial pressure and breathing | antiinflammatory effect [13]: pronounced antiinflammatory effect | animals with antiarrhythmic effect ([14]; 0.5 mg/kg intravenously): 86% | animals with 100% antiarrhythmic effect over 5 hours ([14]; 1 mg/kg): 60% | animals with full suppression of ectopic contractions for 3-3.5 hours ([14]; 1 mg/kg): 40% | animals with full inhibition of ventricular extrasystole ([14]; 1 mg/kg intravenously): 100% | duration of full suppression of ectopic contractions ([14]; 1 mg/kg, in 40% of the animals): 3 to 3.5 h | time during which reappearing arrhythmia does not reach the initial background ([14]; 1 mg/kg, in 40% of the animals): 7 h | duration of 100% antiarrhythmic effect ([14]; 1 mg/kg, in 60% of the animals): over 5 hours | heart beat rate ([14]; accompanying reduction or arresting of arrhythmia, all experiments): reduction of the heart beat rate | time of appearance of antiarrhythmic effect ([14]; after intravenous administration): 5 to 15 min | activity relative to novocainamide (times more active) ([14]; dog, in vivo): 70 times | duration and rapidity of effect relative to novocainamide ([14]; dog, in vivo): considerably superior to it in the duration of the effect, but inferior to novocainamide in the rapidity of occurrence of the antiarrhythmic effect | relationship of effect to dose ([14]; dog, in vivo): in a direct relationship with the administered dose | destructive changes of inner organs and tissues [15]: no destructive changes on the part of inner organs and tissues | lethal dose [16]: 5 to 6 mg/kg | changes in general state of animals ([17]; 0.1-1 mg/kg intravenously, 1-5 mg/kg intraperitoneally, 5-20 mg/kg per os): no considerable changes in the general state of the animals are observed | signs in mice and rats ([17]; higher doses, 5 minutes on average after administration): adynamia, delayed responses, weakening of the muscular tension, rarification and deepening of breathing, lowering of the body temperature | additional signs ([17]; sublethal and lethal doses): hypersalivation, diarrhea, acute disturbances of breathing
